According to patent EP0048954A2, “Beta-lactam compounds, process for the preparation thereof and intermediate products for the preparation thereof” (SAGAMI CHEMICAL RESEARCH CENTER, priority 1980, dated 1982):
Converted amounts (≈) assume the structure as drawn. “And” between values parts separate entries of the source, which are not always exact repeats. Equal entries are not always repeated. Where two headings read alike, the source gives them in different places.

Columns and labels:
Experiment in all cases: Antibacterial activity, minimum inhibition concentration (method of The Chemotherapy Association, Japan)
Type in all cases: cell-based
Proteus vulgaris OX-19 = settings: Proteus vulgaris, OX19, strain H: Proteus vulgaris OX-19; read-out: minimum inhibition concentration
Excerpt: (§1) The abbreviations A to P will be used in the following Tables 2 to 8.
(§2) Test results are shown in terms of the minimum inhibition concentration (µg/mℓ.) in the following Tables 2 to 8.

Proteus rettgeri NIH-96 = settings: Providencia rettgeri, NIH96, strain I: Proteus rettgeri NIH-96; read-out: minimum inhibition concentration
Excerpt: as §1, §2

[1] = tested on: Salmonella typhimurium 3173; settings: for MIC: Salmonella enterica, TYPHIMURIUM
Method: (§3) Antibacterial activities of the compounds according to this invention, which had been prepared in the preceding Examples, were measured according to the method prescribed by The Committee of Amendment of "The method for measurement of the minimum inhibition concentration", The Chemotherapy Association, Japan (See Chemotherapy, Vol. 22, No. 6, pp. 1126 - 1128 (1974) and Vol. 29, No. 1, pp. 76 - 79 (1981)).
as §1, §2

[2] = tested on: Citrobactor freundii NIH-10018 -68; settings: strain O: Citrobactor freundii NIH-10018 -68; read-out: minimum inhibition concentration
Method: as §3, §1, §2

[3] = tested on: Staphylococcus aureus 6538-P; settings: strain A: Staphylococcus aureus 6538-P; read-out: minimum inhibition concentration
Method: as §3, §1, §2

Serratia marcescens 1023 = settings: Serratia marcescens, 1023, strain E: Serratia marcescens 1023; read-out: minimum inhibition concentration
Method: as §3, §1, §2

[4] = tested on: Pseudomonas aeruginosa NCTC-10490; settings: Pseudomonas aeruginosa
Method: as §3, §1, §2

[5] = tested on: Proteus mirabillis B-30-2 IFO-3849
Method: as §3, §1, §2

Proteus morgani Kono = settings: read-out: minimum inhibition concentration
Method: as §3, §1, §2

Klebsiella pneumoniae = settings: Klebsiella pneumoniae, strain C: Klebsiella pneumoniae; read-out: minimum inhibition concentration
Method: as §3, §1, §2

[6] = tested on: Enterobactor cloacae NCTC-9394; settings: strain N: Enterobactor cloacae NCTC-9394; for MIC: read-out: minimum inhibition concentration
Method: as §3, §1, §2

Escherichia coli NIHJ = settings: Escherichia coli, read-out: minimum inhibition concentration
Method: as §3, §1, §2

Escherichia coli NIHJC-2 = settings: for MIC: Escherichia coli
Method: as §3, §1, §2

[7] = tested on: Bacillus subtilis ATCC 6633; settings: Bacillus subtilis, ATCC6633, strain B: Bacillus subtilis ATCC 6633; read-out: minimum inhibition concentration
Method: as §3, §1, §2

[8] = tested on: Serratia marcescens IFO-3736; settings: Serratia marcescens
Method: as §3, §1, §2

[9] = strain D: Salmonella typhimurium 3173, read-out: minimum inhibition concentration
[10] = NCTC10490, strain M: Pseudomonas aeruginosa NCTC-10490, read-out: minimum inhibition concentration
[11] = strain G: Proteus mirabillis B-30-2 IFO-3849, read-out: minimum inhibition concentration
[12] = strain K: Escherichia coli NIHJ
[13] = NIHJC2, strain L: Escherichia coli NIHJC-2, read-out: minimum inhibition concentration
[14] = IFO3736, strain F: Serratia marcescens IFO-3736, read-out: minimum inhibition concentration

Row | SMILES | MIC (Proteus vulgaris OX-19) | MIC (Proteus rettgeri NIH-96) | MIC [1, 9] | MIC [2] | MIC [3] | MIC (Serratia marcescens 1023) | MIC [4, 10] | MIC [5, 11] | MIC (Proteus morgani Kono; strain J: Proteus morgani Kono) | MIC (Klebsiella pneumoniae) | MIC [6] | MIC (Escherichia coli NIHJ; [12]) | MIC (Escherichia coli NIHJC-2; [13]) | MIC [7] | MIC [8, 14] | further results
1 | CC(=O)OCC1=C(C(=O)O)N2C(=O)C(NC(=O)C(=C(Cl)Cl)c3ccc(N)cc3)[C@H]2SC1 (stereo partly drawn) [4-(2), 7-[2-dichloromethylene-2-(4-aminophenyl)acetamido]-3-acetoxymethyl-3-cephem-4-carboxylic acid] | 6.25 µg/mL (≈ 12.9 µM) | 0.2 µg/mL (≈ 0.411 µM) | 100 µg/mL (≈ 206 µM) | > 100 µg/mL | 0.39 µg/mL (≈ 0.802 µM) | 3.12 µg/mL (≈ 6.43 µM) | 12.5 µg/mL (≈ 25.7 µM) | > 100 µg/mL | > 100 µg/mL | > 100 µg/mL | > 100 µg/mL | 0.39 µg/mL (≈ 0.802 µM) | > 100 µg/mL | 1.56 µg/mL (≈ 3.21 µM) | > 100 µg/mL | –
2 | Cn1nnnc1SCC1=C(C(=O)O)N2C(=O)C(NC(=O)C(=C(Cl)Cl)c3ccsc3)C2SC1 (stereo not drawn) [Compound 35, 7-[2-dichloromethylene-2-(3-thienyl)acetamido]-3-(l-methyl-lH-tetrazol-5-yl)thiomethyl-3-cephem-4-carboxylic acid] | 25 µg/mL (≈ 46.9 µM) | 0.1 µg/mL (≈ 0.187 µM) | 25 µg/mL (≈ 46.9 µM) | 100 µg/mL (≈ 187 µM) | 0.2 µg/mL (≈ 0.375 µM) | 3.12 µg/mL (≈ 5.86 µM) | 12.5 µg/mL (≈ 23.4 µM) | 100 µg/mL (≈ 187 µM) | > 100 µg/mL | 50 µg/mL (≈ 93.7 µM) | 12.5 µg/mL (≈ 23.4 µM) | 3.12 µg/mL (≈ 5.86 µM) | 50 µg/mL (≈ 93.7 µM) | 3.12 µg/mL (≈ 5.86 µM) | 100 µg/mL (≈ 187 µM) | –
3 | CN(C)CCn1nnnc1SCC1=C(C(=O)O)N2C(=O)C(NC(=O)C(=C(Cl)Cl)c3csc(N)n3)C2SC1 (stereo not drawn) [10-(1), 7-[2-dichloromethylene-2-(2-aminothiazol-4-yl)-acetamido]-3-[l-(2-dimethylaminoethyl)-lH-tetrazol-5-yl]thiomethyl-3-cephem-4-carboxylic acid] | 0.78 µg/mL (≈ 1.29 µM) | 0.05 µg/mL (≈ 0.0824 µM) | 12.5 µg/mL (≈ 20.6 µM) | 12.5 µg/mL (≈ 20.6 µM) | 3.12 µg/mL (≈ 5.15 µM) | – | 25 µg/mL (≈ 41.2 µM) | 25 µg/mL (≈ 41.2 µM) | 12.5 µg/mL (≈ 20.6 µM) | 12.5 µg/mL (≈ 20.6 µM) | 3.12 µg/mL (≈ 5.15 µM) | 0.1 µg/mL (≈ 0.165 µM) | 12.5 µg/mL (≈ 20.6 µM) | 12.5 µg/mL (≈ 20.6 µM) | 50 µg/mL (≈ 82.4 µM) | –
4 | CC(=O)OCC1=C(C(=O)O)N2C(=O)C(NC(=O)C(=C(Cl)Cl)c3ccc(C)cc3)[C@H]2SC1 (stereo partly drawn) [Compound 28, 7-[2-dichloromethylene-2-(4-methylphenyl)acetamido]-3-acetoxymethyl-3-cephem-4-carboxylic acid] | 100 µg/mL (≈ 206 µM) | 3.12 µg/mL (≈ 6.44 µM) | > 100 µg/mL | > 100 µg/mL | > 100 µg/mL | 6.25 µg/mL (≈ 12.9 µM) | 50 µg/mL (≈ 103 µM) | > 100 µg/mL | > 100 µg/mL | > 100 µg/mL | > 100 µg/mL | > 100 µg/mL | > 100 µg/mL | 3.12 µg/mL (≈ 6.44 µM) | > 100 µg/mL | –
5 | CC(=O)OCC1=C(C(=O)O)N2C(=O)[C@@H](NC(=O)Cc3cccs3)[C@H]2SC1 [Cephalo-thin, reference compound] | – | – | – | – | – | – | – | – | – | – | 50 µg/mL (≈ 126 µM) | – | 25 µg/mL (≈ 63.1 µM) | – | – | MIC ([1]; read-out: minimum inhibition concentration, strain D: Salmonella typhimurium 3173): 3.17 µg/mL (≈ 8.01 µM); minimum inhibition concentration ([1]; strain D: Salmonella typhimurium 3173): 6.25 µg/mL (≈ 15.8 µM); MIC ([4]; NCTC10490, read-out: minimum inhibition concentration): > 100 µg/mL; MIC ([5]; read-out: minimum inhibition concentration, strain G: Proteus mirabillis B-30-2 IFO-3849): 12.5 µg/mL (≈ 31.5 µM); minimum inhibition concentration ([5]; strain G: Proteus mirabillis B-30-2 IFO-3849): 25 µg/mL and 12.5 µg/mL; MIC (Proteus morgani Kono): > 100 µg/mL; minimum inhibition concentration [6]: >100 µg/mL; MIC (Escherichia coli NIHJ): 12.5 µg/mL (≈ 31.5 µM); MIC (Escherichia coli NIHJC-2; NIHJC2, read-out: minimum inhibition concentration): 12.5 µg/mL (≈ 31.5 µM); minimum inhibition concentration (Escherichia coli NIHJC-2; strain L: Escherichia coli NIHJC-2): 50 µg/mL (≈ 126 µM); MIC ([8]; IFO3736, read-out: minimum inhibition concentration): > 100 µg/mL
